Results: patent US20240150293A1, “SPIROCYCLOHEXANE DERIVATIVES, PHARMACEUTICAL COMPOSITIONS CONTAINING THEM AND THEIR USES AS ANTI-APOPTOTIC INHIBITORS” (LES LABORATOIRES SERVIER, priority 2021, published 2024)
Like-named read-outs stand apart in the source and are kept apart here.

Assays:
NCI-H929 cell lines = test: In vitro cytotoxicity, CellTiter-Glo (CTG) assay (Example B, Method B); format: cell-based; conditions: Homo sapiens, NCI-H929, 48 h, NCI-H929 cells, 48 h incubation, read-out: C50
Protocol: Cellular viability was monitored with the cell viability assay (Cell Titer-Glo®) on NCI-H929 cell lines. The CellTiter-Glo® (CTG) Luminescent Cell Viability Assay (from Promega) is a homogeneous method to determine the number of viable cells in culture based on quantitation of the ATP present, which signals the presence of metabolically active cells.
Concentration response of test compounds are performed with 10 mM stock solutions (DMSO), 11-points curve, in a 384-well compound plate. The assay plate is prepared by stamping 120 nL from compound dilution plate of all different concentrations (e.g. 10 mM to have final 30 μM assay test) into a cell culture microplate, using Echo acoustic liquid handling (Labcyte, Beckman). 40 μl of cell solution is added and cells are incubated with compounds for 48 h at 37° C., 5% CO2. CTG was added to the cells (according to the manufacturer instructions) and luminescence intensity was recorded using the Pherastar plate reader (BMG).
This assay provides in vitro cellular efficacy of compounds of Formula (I) tested, measuring the C50, defined as the concentration needed to reach 50% of the cellular viability.

[1] = target: Cy5-labelled Mcl1 (amino acids 171-321) C286S protein (UniProtKB Q07820) (Homo sapiens (Human), UniProt Q07820, C286S); test: Inhibition of Mcl-1 by the fluorescence quenching assay (Example A, Method B); format: binding
In short: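 Cy5-labelled Mcl1 171-321 C286S (1 nM) quenched by TQ5WS-labelled PUMA peptide (10, 20 or 400 nM); displacement raises fluorescence (Ex 620/Em 680 nm). Buffer 10 mM HEPES, 150 mM NaCl, 0.05% Tween 20, pH 7.4, 5% DMSO; 2 h at room temperature, 11-point curves, IC50 converted to Ki (cKi/eKi).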

[2] = test system: H929 multiple myeloma tumor line; test: In vitro cytotoxicity, MTT assay (Example B, Method A); format: cell-based; conditions: H929 cells, 48 hours exposure, read-out: C50
Protocol: The cytotoxicity studies were carried out on the H929 multiple myeloma tumor line.
The cells are distributed onto microplates and exposed to the test compounds for 48 hours. The cell viability is then quantified by a colorimetric assay, the Microculture Tetrazolium Assay (Carmichael et al, Cancer Res. 1987, 47, 939-942).
The results are expressed in C50 which means concentration corresponding to […] of effect/inhibition.

Chain of Cy5-labelled Mcl1 (amino acids 171-321) C286S protein (Q07820 171-321 C286S): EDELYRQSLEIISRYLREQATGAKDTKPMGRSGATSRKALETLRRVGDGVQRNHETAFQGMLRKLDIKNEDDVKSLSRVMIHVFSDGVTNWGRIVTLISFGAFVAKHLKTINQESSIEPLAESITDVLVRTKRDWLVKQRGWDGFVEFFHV

SMILES | Ki [1] | IC50 (NCI-H929 cell lines) | IC50 ([2]; Homo sapiens, NCI-H929, 48 h) | IC50 [2]
C[C@@H](COc1ccnc2c1[C@H](C)CCC2)C[C@H]1Cc2cc3c(cc2[C@]12CC[C@@](Nc1cccc(Cl)c1)(C(=O)O)CC2)O[C@H](C)CCO3 [Example 987, (1r,4S,4′R,8′S)-4-(3-chloroanilino)-4′-methyl-8′-[(2R)-2-methyl-3-{[(5R)-5-methyl-5,6,7,8-tetrahydroquinolin-4-yl]oxy}propyl]-3′,4′,8′,9′-tetrahydro-2′H-spiro[cyclohexane-1,7′-indeno[5,6-b][1,4]dioxepine]-4-carboxylic acid] | 0.00447 nM | 37.7 nM | – | –
CNC(=O)[C@]1(Nc2cccc(Cl)c2)CC[C@@]2(CC1)c1cc3c(cc1C[C@@H]2C[C@@H](C)COc1ccnc2c1[C@H](C)CCC2)OCO3 [Example 955, (1r,4S,6′S)-4-(3-chloroanilino)-N-methyl-6′-[(2R)-2-methyl-3-{[(5R)-5-methyl-5,6,7,8-tetrahydroquinolin-4-yl]oxy}propyl]-6′,7′-dihydro-2′H-spiro[cyclohexane-1,5′-indeno[5,6-d][1,3]dioxole]-4-carboxamide] | – | 11300 nM | – | –
C[C@@H](COc1ccnc2c1[C@H](C)CCC2)C[C@H]1Cc2cc3c(cc2[C@]12CC[C@@](Nc1cccc(Cl)c1)(C(N)=O)CC2)OCO3 [Example 954, (1r,4S,6′S)-4-(3-chloroanilino)-6′-[(2R)-2-methyl-3-{[(5R)-5-methyl-5,6,7,8-tetrahydroquinolin-4-yl]oxy}propyl]-6′,7′-dihydro-2′H-spiro[cyclohexane-1,5′-indeno[5,6-d][1,3]dioxole]-4-carboxamide] | – | 2790 nM | – | –
C[C@@H](COc1ccnc2c1[C@H](C)CCC2)C[C@H]1Cc2cc3c(cc2[C@]12CC[C@@](Nc1cccc(Cl)c1)(C(=O)N(C)C)CC2)OCO3 [Example 956, (1r,4S,6′S)-4-(3-chloroanilino)-N,N-dimethyl-6′-[(2R)-2-methyl-3-{[(5R)-5-methyl-5,6,7,8-tetrahydroquinolin-4-yl]oxy}propyl]-6′,7′-dihydro-2′H-spiro[cyclohexane-1,5′-indeno[5,6-d][1,3]dioxole]-4-carboxamide] | – | 14500 nM | – | –
C[C@@H]1Cc2nccc(OC[C@H](C)C[C@H]3Cc4ccccc4[C@]34CC[C@@](Nc3cccc(Cl)c3)(C(=O)O)CC4)c2[C@@H](C)C1 [Example 666, (1r,2′S,4S)-4-(3-chloroanilino)-2′-[(2R)-3-{[(5S,7S)-5,7-dimethyl-5,6,7,8-tetrahydroquinolin-4-yl]oxy}-2-methylpropyl]-2′,3′-dihydrospiro[cyclohexane-1,1′-indene]-4-carboxylic acid] | 28.7 nM | – | 1070 nM | –
C[C@@H](COc1ccncc1C(F)(F)F)C[C@H]1Cc2ccccc2[C@]12CC[C@@](Nc1cccc(Cl)c1)(C(=O)O)CC2 [Example 578, (1r,2′S,4S)-4-(3-chloroanilino)-2′-[(2R)-2-methyl-3-{[3-(trifluoromethyl)pyridin-4-yl]oxy}propyl]-2′,3′-dihydrospiro[cyclohexane-1,1′-indene]-4-carboxylic acid] | 7.84 nM | – | 471 nM | –
C[C@@H]1Cc2nccc(OC[C@H](C)C[C@H]3Cc4ccccc4[C@]34CC[C@@](Nc3cccc(Cl)c3)(C(=O)O)CC4)c2[C@H](C)C1 [Example 665, (1r,2′S,4S)-4-(3-chloroanilino)-2′-[(2R)-3-{[(5R,7S)-5,7-dimethyl-5,6,7,8-tetrahydroquinolin-4-yl]oxy}-2-methylpropyl]-2′,3′-dihydrospiro[cyclohexane-1,1′-indene]-4-carboxylic acid] | 3.01 nM | – | 276 nM | –
C[C@@H](COc1ccncc1C1CC1)C[C@H]1Cc2ccccc2[C@]12CC[C@@](Nc1cccc(Cl)c1)(C(=O)O)CC2 [Example 577, (1r,2′S,4S)-4-(3-chloroanilino)-2′-{(2R)-3-[(3-cyclopropylpyridin-4-yl)oxy]-2-methylpropyl}-2′,3′-dihydrospiro[cyclohexane-1,1′-indene]-4-carboxylic acid] | 10.4 nM | – | 1190 nM | –
Cc1cc2c(cc1C)[C@]1(CC[C@@](Nc3cccc(Cl)c3)(C(=O)O)CC1)[C@H](C[C@@H](C)COc1ccnc3ccsc13)C2 [Example 734, (1r,2′R,4R)-4-(3-chloroanilino)-5′,6′-dimethyl-2′-{(2R)-2-methyl-3-[(thieno[3,2-b]pyridin-7-yl)oxy]propyl}-2′,3′-dihydrospiro[cyclohexane-1,1′-indene]-4-carboxylic acid] | 1.98 nM | – | 194 nM | –

Further lines, with some results ahead:

Ki [1] | SMILES | IC50 (NCI-H929 cell lines) | IC50 ([2]; Homo sapiens, NCI-H929, 48 h) | IC50 [2]
0.0143 nM | C[C@@H](COc1ccnc2c1[C@H](C)CCC2)C[C@H]1Cc2cc3c(cc2[C@]12CC[C@@](Nc1cccc(Cl)c1)(C(=O)O)CC2)OC[C@H](C)O3 [Example 971, (1r,2′S,4S,7′S)-4-(3-chloroanilino)-2′-methyl-7′-[(2R)-2-methyl-3-{[(5R)-5-methyl-5,6,7,8-tetrahydroquinolin-4-yl]oxy}propyl]-2′,3′,7′,8′-tetrahydrospiro[cyclohexane-1,6′-indeno[5,6-b][1,4]dioxine]-4-carboxylic acid] | 41 nM | – | –
8 nM | C[C@@H](COc1ccnc2c1CCC2F)C[C@H]1Cc2ccccc2[C@]12CC[C@@](Nc1cccc(Cl)c1)(C(=O)O)CC2 (stereo partly drawn) [Example 603, (1r,2′S,4S)-4-(3-chloroanilino)-2′-{(2R)-3-[(7-fluoro-6,7-dihydro-5H-cyclopenta[b]pyridin-4-yl)oxy]-2-methylpropyl}-2′,3′-dihydrospiro[cyclohexane-1,1′-indene]-4-carboxylic acid] | – | 1110 nM | –
1.34 nM | O=C(O)[C@]1(Nc2cccc(Cl)c2)CC[C@@]2(CC1)c1ccccc1CC2CC(COc1ccnc2c1CCC2)COc1ccnc2c1CCC2 (single isomer, unassigned) [Example 497, (1r,4r)-4-(3-chloroanilino)-2′-(3-[(6,7-dihydro-5H-cyclopenta[b]pyridin-4-yl)oxy]-2-{[(6,7-dihydro-5H-cyclopenta[b]pyridin-4-yl)oxy]methyl}propyl)-2′,3′-dihydrospiro[cyclohexane-1,1′-indene]-4-carboxylic acid] | – | – | 1220 nM
0.279 nM | C[C@@H](COc1ccnc2c1[C@H](C)CC[C@H]2C)C[C@H]1Cc2cc(F)ccc2[C@]12CC[C@@](Nc1cccc(Cl)c1)(C(=O)O)CC2 [Example 773, (1r,2′S,4S)-4-(3-chloroanilino)-2′-[(2R)-3-{[(5R,8R)-5,8-dimethyl-5,6,7,8-tetrahydroquinolin-4-yl]oxy}-2-methylpropyl]-5′-fluoro-2′,3′-dihydrospiro[cyclohexane-1,1′-indene]-4-carboxylic acid] | – | 32.2 nM | –
18.9 nM | CC[C@H]1CCc2nccc(OC[C@H](C)C[C@H]3Cc4ccccc4[C@]34CC[C@@](Nc3cccc(Cl)c3)(C(=O)O)CC4)c21 [Example 613, (1r,2′S,4S)-4-(3-chloroanilino)-2′-[(2R)-3-{[(5S)-5-ethyl-6,7-dihydro-5H-cyclopenta[b]pyridin-4-yl]oxy}-2-methylpropyl]-2′,3′-dihydrospiro[cyclohexane-1,1′-indene]-4-carboxylic acid] | – | 2360 nM | –
49.2 nM | O=C(O)[C@]1(Nc2cccc(Cl)c2)CC[C@]2(CC1)C(CC(F)COc1ccnc3c1CCCC3)=Cc1ccccc12 (single isomer, unassigned) [Example 506, (1r,4r)-4-(3-chloroanilino)-2′-{2-fluoro-3-[(5,6,7,8-tetrahydroquinolin-4-yl)oxy]propyl}spiro[cyclohexane-1,1′-indene]-4-carboxylic acid] | – | – | 2790 nM
